Reference: patent US8877944B2, “3-oxo-2,3-dihydro-1H-isoindole-4-carboxamides as PARP inhibitors” (Nerviano Medical Sciences S.R.L., priority 2009, dated 2014)

How the values were obtained:
PARP-1 FL = PARP-1 FL (Homo sapiens (Human), UniProt P09874); experiment: Fluorescence polarization probe displacement assay, PARP-1; assay type: binding; conditions: for DC50: half maximal displacement concentration
Procedure: (§1) Affinity evaluation of the tested compounds and their selectivity with respect to the different PARP isoforms of interest was assessed in a displacement assay.
(§2) The polarization signal can be measured, e.g., by a plate reader such as the Saphire2 (Tecan). The displacement ability of the test compound is in correlation with the compound affinity for the NAD pocket of the enzyme.
(§3) The assay performances were then evaluated (Z′ factor) as well as the displacement of the probe by its scaffold and known commercially available PARP inhibitors. In all of the experiments, the polarization signal was measured using a Saphire2 plate reader (Tecan). Data analysis was performed using Dynafit software. In particular, titration data were fitted to the following equilibria: Enzyme+probe <==> Complex Enzyme-probe, while displacement data were fitted to the following equilibria: Enzyme+probe <==> Complex Enzyme-probe, Enzyme+Compound <==> Complex Enzyme-Compound, whereby binding of probe and compound on the enzyme are mutually exclusive (pure competitive mechanism). Displacement data were also fitted using Excell spreadsheet (Microsoft Inc. Seattle, USA) to a four parameter logistic model (4PL), or Hill-Slope model to calculate DC50s where the DC50 value represents the compound concentration at which the polarization signal is diminished by 50% compared to untreated controls.
(§4) KD values, are the average of three independent experiments.

[1] = system: PAR formation in HeLa cells; experiment: Cellular PAR assay: inhibition of hydrogen peroxide induced PAR formation; conditions: Homo sapiens, read-out: PAR assay IC50
Procedure: Compounds potencies were evaluated by measuring the inhibition of poly (ADP-ribose) (PAR) chains formation as a marker for PARP-1 inhibition.
Cellular activity of PARP-1 inhibitors was assessed by measuring the inhibition of the hydrogen peroxide induced PAR formation in HeLa cells (ECACC). Cellular PAR levels were measured by immunocytochemistry, and quantified using an ArrayScan vTi instrument (Cellomics Thermo Scientific).
Test compounds were then added at the required concentration for 30′. […] Concentration curves were prepared in MEM/10% FCS from compound stocks in DMSO, and final DMSO concentration was 0.002% (v/v). Duplicate wells for each concentration point were prepared with a typical highest compound concentration of 20 μM and serial dilution 1:3. […] Non-specific binding sites were blocked by incubating wells for 30 min in PBS containing 5% (w/v) FBS 0.05% tween20. […] After washing further 3 times in PBS, cellular PAR immunoreactivity was assessed using the ArrayScan vTi instrument, with a Zeiss 10×0.5 N.A. objective, and applying the Cytotoxicity.V3 algorithm (Cellomics/Thermo Fisher) with a XF100 filter. At least 10 fields, corresponding to at least 900 cells, were read for each well.
The following formula is used: IC50=Bottom+(Top-Bottom)/(1+10^((LogEC50−X))); X is the logarithm of concentration. IC50 is the response; IC50 starts at Bottom and goes to Top with a sigmoid shape.

PARP-2 FL = PARP-2 FL (Homo sapiens (Human), UniProt Q9UGN5); experiment: Fluorescence polarization probe displacement assay, PARP-2; assay type: binding; conditions: read-out: PARP-2 DC50; half maximal displacement concentration
Procedure: as §1, §2, §3, §4

PARP-3 FL = PARP-3 FL (Homo sapiens (Human), UniProt Q9Y6F1); experiment: Fluorescence polarization probe displacement assay, PARP-3; assay type: binding; conditions: half maximal displacement concentration
Procedure: as §1, §2, §3, §4

[2] = compound P1 as the probe, 250 nM PARP-1

Sequence of PARP-3 FL (Q9Y6F1 whole entry): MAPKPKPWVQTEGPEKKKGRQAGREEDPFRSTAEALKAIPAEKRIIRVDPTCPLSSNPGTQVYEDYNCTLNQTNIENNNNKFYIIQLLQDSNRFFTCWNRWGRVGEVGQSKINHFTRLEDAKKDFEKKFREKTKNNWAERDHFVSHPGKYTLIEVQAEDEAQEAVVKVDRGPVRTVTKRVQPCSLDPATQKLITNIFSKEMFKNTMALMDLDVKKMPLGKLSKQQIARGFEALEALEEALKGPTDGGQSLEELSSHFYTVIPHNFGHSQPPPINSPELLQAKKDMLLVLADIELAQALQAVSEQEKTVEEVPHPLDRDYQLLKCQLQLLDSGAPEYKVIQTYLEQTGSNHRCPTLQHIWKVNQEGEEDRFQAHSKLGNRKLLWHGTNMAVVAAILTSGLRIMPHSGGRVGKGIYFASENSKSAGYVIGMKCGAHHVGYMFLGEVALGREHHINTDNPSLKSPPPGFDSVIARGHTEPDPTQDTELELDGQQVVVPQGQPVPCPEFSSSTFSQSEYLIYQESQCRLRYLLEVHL
Sequence of PARP-2 FL (Q9UGN5 whole entry): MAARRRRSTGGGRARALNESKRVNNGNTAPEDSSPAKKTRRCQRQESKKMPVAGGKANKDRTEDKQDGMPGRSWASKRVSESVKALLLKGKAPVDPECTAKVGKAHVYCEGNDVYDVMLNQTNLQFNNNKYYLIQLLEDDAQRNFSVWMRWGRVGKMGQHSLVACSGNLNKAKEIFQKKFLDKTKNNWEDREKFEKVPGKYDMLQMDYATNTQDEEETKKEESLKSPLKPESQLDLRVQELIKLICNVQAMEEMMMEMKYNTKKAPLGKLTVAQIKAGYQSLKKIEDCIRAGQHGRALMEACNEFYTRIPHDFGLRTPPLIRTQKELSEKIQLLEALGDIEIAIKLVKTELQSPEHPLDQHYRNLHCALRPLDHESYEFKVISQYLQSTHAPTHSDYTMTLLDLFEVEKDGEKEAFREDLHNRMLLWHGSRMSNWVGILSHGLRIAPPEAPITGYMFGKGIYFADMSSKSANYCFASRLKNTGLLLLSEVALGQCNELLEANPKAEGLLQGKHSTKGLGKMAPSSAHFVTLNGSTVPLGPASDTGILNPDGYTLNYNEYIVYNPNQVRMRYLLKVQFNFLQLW
Sequence of PARP-1 FL (P09874 whole entry): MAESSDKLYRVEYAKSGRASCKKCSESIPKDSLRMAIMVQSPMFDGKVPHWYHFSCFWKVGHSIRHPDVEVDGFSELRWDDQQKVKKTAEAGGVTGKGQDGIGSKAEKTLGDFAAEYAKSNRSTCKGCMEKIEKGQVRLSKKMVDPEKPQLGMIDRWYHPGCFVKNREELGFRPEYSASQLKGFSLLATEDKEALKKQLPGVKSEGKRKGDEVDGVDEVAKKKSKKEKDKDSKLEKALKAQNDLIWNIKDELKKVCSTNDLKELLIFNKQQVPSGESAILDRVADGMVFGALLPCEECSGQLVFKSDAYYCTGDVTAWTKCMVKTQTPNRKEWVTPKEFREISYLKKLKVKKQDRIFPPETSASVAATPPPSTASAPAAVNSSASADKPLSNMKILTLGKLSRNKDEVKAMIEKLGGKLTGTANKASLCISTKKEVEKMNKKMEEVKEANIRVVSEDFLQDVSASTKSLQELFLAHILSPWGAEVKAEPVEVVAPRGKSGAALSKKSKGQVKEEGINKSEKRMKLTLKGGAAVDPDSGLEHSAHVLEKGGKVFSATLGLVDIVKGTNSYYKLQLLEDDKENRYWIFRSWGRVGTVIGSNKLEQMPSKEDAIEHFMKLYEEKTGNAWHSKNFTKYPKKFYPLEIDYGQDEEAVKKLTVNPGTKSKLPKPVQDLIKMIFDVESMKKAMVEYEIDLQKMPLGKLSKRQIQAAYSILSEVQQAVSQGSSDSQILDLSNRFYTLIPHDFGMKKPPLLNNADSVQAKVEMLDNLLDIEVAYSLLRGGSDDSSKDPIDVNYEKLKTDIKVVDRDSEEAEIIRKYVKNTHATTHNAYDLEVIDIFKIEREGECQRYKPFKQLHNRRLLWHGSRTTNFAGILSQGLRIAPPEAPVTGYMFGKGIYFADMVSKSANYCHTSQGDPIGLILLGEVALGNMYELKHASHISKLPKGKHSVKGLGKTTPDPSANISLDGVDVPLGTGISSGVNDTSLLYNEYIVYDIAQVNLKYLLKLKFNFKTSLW

Row | SMILES | Kd (PARP-1 FL; [2]) | DC50 (PARP-1 FL) | IC50 [1] | DC50 (PARP-2 FL) | DC50 (PARP-3 FL) | Kd (PARP-1 FL; compound P3 as the probe, 100 nM PARP-1)
1 | Cc1ccc(CN2CCC(N3Cc4cccc(C(N)=O)c4C3=O)CC2)s1 [Compound 45, 2-{1-[(5-Methylthiophen-2-yl)methyl]piperidin-4-yl}-3-oxo-2,3-dihydro-1H-isoindole-4-carboxamide] | < 30 nM | < 250 nM | 360 nM | > 10000 nM |  | 
2 | NC(=O)c1cccc2c1C(=O)N(C1CCN(Cc3ccc(F)cc3)CC1)C2 [Compound 11, 2-[1-(4-Fluorobenzyl)piperidin-4-yl]-3-oxo-2,3-dihydro-1H-isoindole-4-carboxamide] |  |  |  | > 10000 nM |  | 
3 | NC(=O)c1cccc2c1C(=O)N(C1CCN(Cc3ccc4cc[nH]c4c3)CC1)C2 [Compound 30, 2-[1-(1H-indol-6-ylmethyl)piperidin-4-yl]-3-oxo-2,3-dihydro-1H-isoindole-4-carboxamide] |  | < 250 nM | 300 nM | 5970 nM |  | 
4 | NC(=O)c1cccc2c1C(=O)N(C1CCN(Cc3cccc(F)c3)CC1)C2 [Compound 13, 2-[1-(3-Fluorobenzyl)piperidin-4-yl]-3-oxo-2,3-dihydro-1H-isoindole-4-carboxamide] | < 30 nM | < 250 nM |  | > 10000 nM |  | 
5 | NC(=O)c1cc(F)cc2c1C(=O)N(C1CCN(C3CCC(Cl)(Cl)CC3)CC1)C2 [Compound 105, 2-[1-(4,4-Dichlorocyclohexyl)piperidin-4-yl]-6-fluoro-3-oxo-2,3-dihydro-1H-isoindole-4-carboxamide] |  |  |  | > 10000 nM | 1080 nM | 
6 | COc1ccc(CN2CCC(N3Cc4cccc(C(N)=O)c4C3=O)CC2)cc1 [Compound 39, 2-[1-(4-Methoxybenzyl)piperidin-4-yl]-3-oxo-2,3-dihydro-1H-isoindole-4-carboxamide] | < 30 nM | < 250 nM | 330 nM | > 10000 nM |  | 
7 | NC(=O)c1cccc2c1C(=O)N(C1CCN(CC3CCN(Cc4ccccc4)CC3)CC1)C2 [Compound 27, 2-{1-[(1-Benzylpiperidin-4-yl)methyl]piperidin-4-yl}-3-oxo-2,3-dihydro-1H-isoindole-4-carboxamide] | < 30 nM | 260 nM | 320 nM | > 10000 nM |  | 
8 | Cc1ncsc1CN1CCC(N2Cc3cccc(C(N)=O)c3C2=O)CC1 [Compound 26, 2-{1-[(4-Methyl-1,3-thiazol-5-yl)methyl]piperidin-4-yl}-3-oxo-2,3-dihydro-1H-isoindole-4-carboxamide] | < 30 nM | < 250 nM | 200 nM | 6500 nM |  | 
9 | NC(=O)c1cccc2c1C(=O)N(CCCN1CCN(c3cccc(Cl)c3)CC1)C2 [Compound 46, 2-{3-[4-(3-Chloro-phenyl)-piperazin-1-yl]-propyl}-3-oxo-2,3-dihydro-1H-isoindole-4-carboxylic acid amide] |  | < 250 nM | 400 nM | 1460 nM |  | 
10 | COc1cccc(CN2CCC(N3Cc4cccc(C(N)=O)c4C3=O)CC2)c1 [Compound 35, 2-[1-(3-Methoxybenzyl)piperidin-4-yl]-3-oxo-2,3-dihydro-1H-isoindole-4-carboxamide] | < 30 nM | < 250 nM | 300 nM | > 10000 nM |  | 
11 | CCc1ccc(CN2CCC(N3Cc4cccc(C(N)=O)c4C3=O)CC2)cc1 [Compound 43, 2-[1-(4-Ethylbenzyl)piperidin-4-yl]-3-oxo-2,3-dihydro-1H-isoindole-4-carboxamide] | < 30 nM | < 250 nM | 2660 nM | > 10000 nM |  | 
12 | Cc1c(CN2CCC(N3Cc4cccc(C(N)=O)c4C3=O)CC2)cnn1C [Compound 34, 2-{1-[(1,5-Dimethyl-1H-pyrazol-4-yl)methyl]piperidin-4-yl}-3-oxo-2,3-dihydro-1H-isoindole-4-carboxamide] | 130 nM | 340 nM | 900 nM | > 10000 nM |  | 
13 | COC[C@H]1CC[C@H](N2CCC(N3Cc4cccc(C(N)=O)c4C3=O)CC2)CC1 [Compound 6, 2-{1-[Trans-4-(methoxymethyl)cyclohexyl]piperidin-4-yl}-3-oxo-2,3-dihydro-1H-isoindole-4-carboxamide] | < 30 nM | < 250 nM | 2300 nM | > 10000 nM |  | 
14 | NC(=O)c1cccc2c1C(=O)N(CC1CCN(Cc3ccc(F)cc3)CC1)C2 [Compound 51, 2-{[1-(4-Fluorobenzyl)piperidin-4-yl]methyl}-3-oxo-2,3-dihydro-1H-isoindole-4-carboxamide] | < 30 nM | < 250 nM | 160 nM | 5680 nM |  | 
15 | Cc1ccsc1CN1CCC(N2Cc3cccc(C(N)=O)c3C2=O)CC1 [Compound 36, 2-{1-[(3-Methylthiophen-2-yl)methyl]piperidin-4-yl}-3-oxo-2,3-dihydro-1H-isoindole-4-carboxamide] | < 30 nM | < 250 nM | 230 nM | 9400 nM |  | 
16 | CC(C)Oc1ccccc1CN1CCC(N2Cc3cccc(C(N)=O)c3C2=O)CC1 [Compound 41, 3-oxo-2-{1-[2-(propan-2-yloxy)benzyl]piperidin-4-yl}-2,3-dihydro-1H-isoindole-4-carboxamide] |  | 470 nM |  | > 10000 nM |  | 
17 | NC(=O)c1ccc(F)c2c1C(=O)N(C1CCN(C3CCC(F)(F)CC3)CC1)C2 [Compound 101, 2-[1-(4,4-Difluorocyclohexyl)-piperidin-4-yl]-7-fluoro-3-oxo-2,3-dihydro-1H-isoindole-4-carboxamide] |  |  |  | > 10000 nM | > 10000 nM | 

More lines, now with the values ahead:

Row | Kd (PARP-1 FL; [2]) | DC50 (PARP-1 FL) | IC50 [1] | DC50 (PARP-2 FL) | DC50 (PARP-3 FL) | Kd (PARP-1 FL; compound P3 as the probe, 100 nM PARP-1) | SMILES
18 | < 30 nM | < 250 nM | 260 nM | > 10000 nM |  |  | CC(C)c1ccc(CN2CCC(N3Cc4cccc(C(N)=O)c4C3=O)CC2)cc1 [Compound 38, 3-oxo-2-{1-[4-(propan-2-yl)benzyl]piperidin-4-yl}-2,3-dihydro-1H-isoindole-4-carboxamide]
19 |  |  |  | > 10000 nM | 790 nM |  | NC(=O)c1cc(Cl)cc2c1C(=O)N(C1CCN(C3CCC(F)(F)CC3)CC1)C2 [Compound 100, 2-[1-(4,4-Difluorocyclohexyl)-piperidin-4-yl]-6-chloro-3-oxo-2,3-dihydro-1H-isoindole-4-carboxamide]
20 |  | < 250 nM | 80 nM | 3770 nM | 4670 nM | < 10 nM | NC(=O)c1cc(F)cc2c1C(=O)N(C1CCN(C3CCC(=O)CC3)CC1)C2 [Compound 103, 6-Fluoro-3-oxo-2-[1-(4-oxocyclohexyl)piperidin-4-yl]-2,3-dihydro-1H-isoindole-4-carboxamide]
21 | < 30 nM | < 250 nM | 5770 nM | > 10000 nM |  |  | NC(=O)c1cccc2c1C(=O)N(C1CCN(Cc3ccc(F)cc3F)CC1)C2 [Compound 17, 2-[1-(2,4-Difluorobenzyl)piperidin-4-yl]-3-oxo-2,3-dihydro-1H-isoindole-4-carboxamide]
22 | < 30 nM | < 250 nM |  | 3200 nM |  |  | NC(=O)c1cccc2c1C(=O)N(C1CCN(Cc3ccc4ccccc4n3)CC1)C2 [Compound 16, 3-oxo-2-[1-(quinolin-2-ylmethyl)piperidin-4-yl]-2,3-dihydro-1H-isoindole-4-carboxamide]
23 | < 30 nM | < 250 nM |  | > 10000 nM |  |  | NC(=O)c1cccc2c1C(=O)N(C1CCN(Cc3ccccc3F)CC1)C2 [Compound 12, 2-[1-(2-Fluorobenzyl)piperidin-4-yl]-3-oxo-2,3-dihydro-1H-isoindole-4-carboxamide]
24 | < 30 nM | < 250 nM | 7100 nM | > 10000 nM |  |  | Cc1ccc(CN2CCC(N3Cc4cccc(C(N)=O)c4C3=O)CC2)cc1C [Compound 18, 2-[1-(3,4-Dimethylbenzyl)piperidin-4-yl]-3-oxo-2,3-dihydro-1H-isoindole-4-carboxamide]
25 | 34 nM | < 250 nM | 190 nM |  |  |  | NC(=O)c1cccc2c1C(=O)N(C1CCN(Cc3cccc4[nH]ccc34)CC1)C2 [Compound 28, 2-[1-(1H-indol-4-ylmethyl)piperidin-4-yl]-3-oxo-2,3-dihydro-1H-isoindole-4-carboxamide]
26 | 33 nM | < 250 nM | 5310 nM | 4150 nM |  |  | NC(=O)c1cccc2c1C(=O)N(C1CCN(Cc3cccc(Cl)c3)CC1)C2 [Compound 42, 2-[1-(3-Chlorobenzyl)piperidin-4-yl]-3-oxo-2,3-dihydro-1H-isoindole-4-carboxamide]
27 | < 30 nM | < 250 nM | 260 nM | > 10000 nM |  |  | CCCOc1ccc(CN2CCC(N3Cc4cccc(C(N)=O)c4C3=O)CC2)cc1 [Compound 37, 3-oxo-2-[1-(4-propoxybenzyl)piperidin-4-yl]-2,3-dihydro-1H-isoindole-4-carboxamide]
28 |  | < 250 nM | 500 nM | > 10000 nM |  |  | CC(C)Oc1ccc(CN2CCC(N3Cc4cccc(C(N)=O)c4C3=O)CC2)cc1 [Compound 44, 3-oxo-2-{1-[4-(propan-2-yloxy)benzyl]piperidin-4-yl}-2,3-dihydro-1H-isoindole-4-carboxamide]
29 | 110 nM | < 250 nM | 620 nM | > 10000 nM |  |  | CCOc1cccc(CN2CCC(N3Cc4cccc(C(N)=O)c4C3=O)CC2)c1 [Compound 40, 2-[1-(3-Ethoxybenzyl)piperidin-4-yl]-3-oxo-2,3-dihydro-1H-isoindole-4-carboxamide]
30 |  | < 250 nM | 1100 nM | > 10000 nM |  |  | Cn1cc(CN2CCC(N3Cc4cccc(C(N)=O)c4C3=O)CC2)cn1 [Compound 33, 2-{1-[(1-Methyl-1H-pyrazol-4-yl)methyl]piperidin-4-yl}-3-oxo-2,3-dihydro-1H-isoindole-4-carboxamide]
31 | 40 nM | < 250 nM | 4600 nM | > 10000 nM |  |  | COC[C@H]1CC[C@@H](N2CCC(N3Cc4cccc(C(N)=O)c4C3=O)CC2)CC1 [Compound 5, 2-{1-[Cis-4-(methoxymethyl)cyclohexyl]piperidin-4-yl}-3-oxo-2,3-dihydro-1H-isoindole-4-carboxamide]
